Experimental data reported in ChEMBL document CHEMBL4665680, “Drug Induced Liver Injury (DILI). Mechanisms and Medicinal Chemistry Avoidance/Mitigation Strategies” (J Med Chem, 2020).

Assay: Toxicity in po dosed human assessed as maximum daily dose
Assay type: organism-based
Conditions: in vivo

Question: With `CC(C)(C)NC(=O)[C@@H]1C[C@@H]2CCCC[C@@H]2CN1C[C@@H](O)[C@H](Cc1ccccc1)NC(=O)[C@H](CC(N)=O)NC(=O)c1ccc2ccccc2n1` as the compound, how does the Activity read?
Answer: The Activity was 2000 mg.

Question: With `CCCCC1=NC2(CCCC2)C(=O)N1Cc1ccc(-c2ccccc2-c2nnn[nH]2)cc1` [IRBESARTAN] as the compound, how does the Activity read?
Answer: Its Activity is 300 mg.

Question: For `CN(CCOc1ccc(CC2SC(=O)NC2=O)cc1)c1ccccn1` (stereo not drawn) [ROSIGLITAZONE], which Activity is on record?
Answer: Its Activity is 8 mg.

Question: With `CCCCc1nc(Cl)c(CO)n1Cc1ccc(-c2ccccc2-c2nn[nH]n2)cc1` [LOSARTAN] as the compound, how does the Activity read?
Answer: Its Activity is 100 mg.

Question: Which Activity does the source give for `Cc1c(C)c2c(c(C)c1O)CCC(C)(COc1ccc(CC3SC(=O)NC3=O)cc1)O2` (stereo not drawn) [TROGLITAZONE] here?
Answer: Its Activity is 600 mg.

Question: For `COc1ccc(Cl)cc1C(=O)NCCc1ccc(S(=O)(=O)NC(=O)NC2CCCCC2)cc1` [GLYBURIDE], which Activity is on record?
Answer: The Activity was 20 mg.

Question: Which Activity does the source give for `CCc1nn(CCCN2CCN(c3cccc(Cl)c3)CC2)c(=O)n1CCOc1ccccc1` [NEFAZODONE] here?
Answer: The Activity was 600 mg.

Question: Which Activity does the source give for `CS(=O)(=O)CCNCc1ccc(-c2ccc3ncnc(Nc4ccc(OCc5cccc(F)c5)c(Cl)c4)c3c2)o1` [LAPATINIB] here?
Answer: The Activity was 1500 mg.

Question: With `CC(=O)N1CCN(c2ccc(OCC3COC(Cn4ccnc4)(c4ccc(Cl)cc4Cl)O3)cc2)CC1` (stereo not drawn) [KETOCONAZOLE] as the compound, how does the Activity read?
Answer: Its Activity is 400 mg.

Question: For `CCc1ccc(CCOc2ccc(CC3SC(=O)NC3=O)cc2)nc1` (stereo not drawn) [PIOGLITAZONE], which Activity is on record?
Answer: Its Activity is 45 mg.

Question: For `COC(=O)[C@H]1[C@H]2C[C@@H]3c4[nH]c5cc(OC)ccc5c4CCN3C[C@H]2C[C@@H](OC(=O)c2cc(OC)c(OC)c(OC)c2)[C@@H]1OC` [RESERPINE], which Activity is on record?
Answer: The Activity was 0.5 mg.

Question: With `COC(=O)C1=C(C)NC(C)=C(C(=O)OCCN(C)Cc2ccccc2)C1c1cccc([N+](=O)[O-])c1` (stereo not drawn) [NICARDIPINE] as the compound, how does the Activity read?
Answer: Its Activity is 120 mg.

Question: For `CCCN(CCC)C(=O)Cc1c(-c2ccc(Cl)cc2)nc2ccc(Cl)cn12` [ALPIDEM], which Activity is on record?
Answer: The Activity was 150 mg.
